System: 229E human corona virus (hCoV)
Experiment: 229E live virus assay (CPE, ATPlite readout in MRC-5 cells)
Assay type: cell-based, hCoV-229E
Conditions: Human coronavirus 229E, MRC5, hCoV-229E live virus, MOI 0.05, ATPlite readout, run in duplicate

SMILES	EC50
CN(C(=O)c1cc2c(F)cc(F)cc2[nH]1)[C@@H](CC1CCC1)C(=O)N1C[C@]2(C[C@H]1C#N)C(=O)Nc1ccccc12 [Example 91]	< 100 nM
COc1cccc2[nH]c(C(=O)N(C)[C@@H](CC3CCC3)C(=O)N3C[C@]4(C[C@H]3C#N)C(=O)Nc3ccccc34)cc12 [Example 92]	< 100 nM
CN(C(=O)c1cc2c(F)cccc2[nH]1)[C@@H](CC1CCC1)C(=O)N1C[C@]2(C[C@H]1C#N)C(=O)Nc1ccccc12 [Example 93]	< 100 nM
CCN(C(=O)c1cc2c(F)cccc2[nH]1)[C@@H](CC(C)C)C(=O)N1C[C@]2(C[C@H]1C#N)C(=O)Nc1ccccc12 [Example 95]	100 to 1000 nM
C=CCN(C(=O)OCc1ccccc1)[C@@H](CC(C)C)C(=O)N1C[C@]2(C[C@H]1C#N)C(=O)Nc1ccccc12 [Example 96]	100 to 1000 nM
CCCN(C(=O)OCc1ccccc1)[C@@H](CC(C)C)C(=O)N1C[C@]2(C[C@H]1C#N)C(=O)Nc1ccccc12 [Example 97]	> 1000 nM
CCCN(C(=O)c1cc2c(F)cccc2[nH]1)[C@@H](CC(C)C)C(=O)N1C[C@]2(C[C@H]1C#N)C(=O)Nc1ccccc12 [Example 98]	100 to 1000 nM
CC(C)CC[C@@H](C(=O)N1C[C@]2(C[C@H]1C#N)C(=O)Nc1ccccc12)N(C)C(=O)OCc1ccccc1 [Example 100]	100 to 1000 nM
CN(C(=O)OCc1ccccc1)[C@@H](CC1CC1)C(=O)N1C[C@]2(C[C@H]1C#N)C(=O)Nc1ccccc12 [Example 102]	> 1000 nM
CC(C)CC[C@@H](C(=O)N1C[C@]2(C[C@H]1C#N)C(=O)Nc1ccccc12)N(C)C(=O)c1cc2c(F)cc(F)cc2[nH]1 [Example 104]	< 100 nM
COc1cccc2[nH]c(C(=O)N(C)[C@@H](CCC(C)C)C(=O)N3C[C@]4(C[C@H]3C#N)C(=O)Nc3ccccc34)cc12 [Example 105]	< 100 nM
COc1cccc2[nH]c(C(=O)N(C)[C@@H](CC3CCCCC3)C(=O)N3C[C@]4(C[C@H]3C#N)C(=O)Nc3ccccc34)cc12 [Example 113]	< 100 nM
COc1cccc2[nH]c(C(=O)N(C)[C@@H](CC3CC3)C(=O)N3C[C@]4(C[C@H]3C#N)C(=O)Nc3ccccc34)cc12 [Example 114]	< 100 nM
CN(C(=O)c1cc2c(F)cc(F)cc2[nH]1)[C@@H](CC1CC1)C(=O)N1C[C@]2(C[C@H]1C#N)C(=O)Nc1ccccc12 [Example 115]	< 100 nM
CN(C(=O)c1cc2c(F)cccc2[nH]1)[C@@H](CC1CC1)C(=O)N1C[C@]2(C[C@H]1C#N)C(=O)Nc1ccccc12 [Example 116]	< 100 nM
COc1cccc2[nH]c(C(=O)N[C@@H](CC(C)C)C(=O)N3C[C@]4(C[C@H]3C=O)C(=O)N(C)c3ccccc34)cc12 [Example 119]	100 to 1000 nM
COc1cccc2[nH]c(C(=O)N[C@@H](CC(C)C)C(=O)N3C[C@]4(C[C@H]3C#N)C(=O)N(C)c3ccccc34)cc12 [Example 120]	> 1000 nM
COc1cccc2[nH]c(C(=O)N(C)[C@@H](CC(C)C)C(=O)N3C[C@]4(C[C@H]3C#N)C(=O)N(C)c3ccccc34)cc12 [Example 121]	100 to 1000 nM
CC(C)C[C@H](NC(=O)NCc1ccccc1)C(=O)N1C[C@]2(C[C@H]1C#N)C(=O)Nc1ccccc12 [Example 122]	100 to 1000 nM
CC(C)(F)C[C@H](NC(=O)c1cc2c(F)cc(F)cc2[nH]1)C(=O)N1C[C@]2(C[C@H]1C#N)C(=O)Nc1ccc(Cl)cc12 [Example 123]	< 100 nM

SMILES	EC50
CCCOC[C@H](NC(=O)c1cc2c(OC)cccc2[nH]1)C(=O)N1C[C@]2(C[C@H]1C#N)C(=O)Nc1ccccc12 [Example 126]	< 100 nM
C#CCOC[C@H](NC(=O)c1cc2c(OC)cccc2[nH]1)C(=O)N1C[C@]2(C[C@H]1C#N)C(=O)Nc1ccccc12 [Example 127]	< 100 nM
CC(C)(C)OC(=O)NC[C@H](NC(=O)c1cc2c(F)cc(F)cc2[nH]1)C(=O)N1C[C@]2(C[C@H]1C#N)C(=O)Nc1ccccc12 [Example 128]	> 1000 nM
N#C[C@@H]1C[C@@]2(CN1C(=O)[C@H](COCc1cnn[nH]1)NC(=O)c1cc3c(F)cc(F)cc3[nH]1)C(=O)Nc1ccccc12 [Example 129]	> 1000 nM
CC(C)(C)C[C@H](NC(=O)c1ccc2ncc(C(F)(F)F)cc2c1)C(=O)N1C[C@]2(C[C@H]1C#N)C(=O)Nc1ccccc12 [Example 134]	< 100 nM
Cc1cnc2ccc(C(=O)N[C@@H](CC(C)(C)C)C(=O)N3C[C@]4(C[C@H]3C#N)C(=O)Nc3ccccc34)cc2c1 [Example 135]	< 100 nM
CC(C)(C)C[C@H](NC(=O)c1ccc2ncc(C3CC3)cc2c1)C(=O)N1C[C@]2(C[C@H]1C#N)C(=O)Nc1ccccc12 [Example 136]	< 100 nM
CC(C)(C)C[C@H](NC(=O)c1cc(OC(F)(F)F)c2ncccc2c1)C(=O)N1C[C@]2(C[C@H]1C#N)C(=O)Nc1ccccc12 [Example 137]	< 100 nM
CC(C)(C)C[C@H](NC(=O)c1cc(Cl)c2ncccc2c1)C(=O)N1C[C@]2(C[C@H]1C#N)C(=O)Nc1ccccc12 [Example 138]	< 100 nM
CC(C)(C)C[C@H](NC(=O)c1cc(OC(F)F)c2ncccc2c1)C(=O)N1C[C@]2(C[C@H]1C#N)C(=O)Nc1ccccc12 [Example 139]	< 100 nM
CC(C)(C)C[C@H](NC(=O)c1cn(-c2ccc(Cl)cc2)nn1)C(=O)N1C[C@]2(C[C@H]1C#N)C(=O)Nc1ccccc12 [Example 140]	< 100 nM
CC(C)(C)C[C@H](NC(=O)c1cn(C2CC2)nn1)C(=O)N1C[C@]2(C[C@H]1C#N)C(=O)Nc1ccccc12 [Example 141]	< 100 nM
CC(C)(C)C[C@H](NC(=O)c1cn(-c2cccc(Cl)c2)nn1)C(=O)N1C[C@]2(C[C@H]1C#N)C(=O)Nc1ccccc12 [Example 142]	< 100 nM
CC(C)(C)C[C@H](NC(=O)c1cn(CC(F)(F)F)nn1)C(=O)N1C[C@]2(C[C@H]1C#N)C(=O)Nc1ccccc12 [Example 143]	< 100 nM
CC(C)(C)C[C@H](NC(=O)c1cnn(CC(F)(F)F)c1)C(=O)N1C[C@]2(C[C@H]1C#N)C(=O)Nc1ccccc12 [Example 144]	< 100 nM
CC(C)(C)C[C@H](NC(=O)c1cnn(-c2ccc(C(F)(F)F)cc2)c1)C(=O)N1C[C@]2(C[C@H]1C#N)C(=O)Nc1ccccc12 [Example 145]	< 100 nM
Cc1cc2cc(C(=O)N[C@@H](CC(C)(C)C)C(=O)N3C[C@]4(C[C@H]3C#N)C(=O)Nc3ccccc34)cc(Cl)c2nc1C [Example 147]	< 100 nM
CC(C)(C)C[C@H](NC(=O)c1cn(C2CCC2)nn1)C(=O)N1C[C@]2(C[C@H]1C#N)C(=O)Nc1ccccc12 [Example 148]	< 100 nM
CC(C)C[C@@H](C(=O)N1C[C@]2(C[C@H]1C=O)C(=O)Nc1ccccc12)N(C)C(=O)c1cc2c(F)cc(F)cc2[nH]1 [Example 149]	< 100 nM
CC(C)C[C@@H](C(=O)N1C[C@]2(C[C@H]1C=O)C(=O)Nc1ccccc12)N(C)C(=O)c1cc2c(F)cc(F)c(F)c2[nH]1 [Example 150]	< 100 nM

SMILES	EC50
CC(C)C[C@@H](C(=O)N1C[C@]2(C[C@H]1C(O)S(=O)(=O)O)C(=O)Nc1ccccc12)N(C)C(=O)c1cc2c(F)cc(F)cc2[nH]1 (stereo partly drawn) [Example 153]	< 100 nM
CC(C)C[C@@H](C(=O)N1C[C@]2(C[C@H]1C(O)S(=O)(=O)O)C(=O)Nc1ccccc12)N(C)C(=O)c1cc2c(F)cc(F)c(F)c2[nH]1 (stereo partly drawn) [Example 154]	< 100 nM
CC(C)C[C@@H](C(=O)N1C[C@]2(C[C@H]1C(=O)C(=O)NC1CCCCC1)C(=O)Nc1ccccc12)N(C)C(=O)c1cc2c(F)cc(F)cc2[nH]1 [Example 155]	> 1000 nM
CC(C)C[C@@H](C(=O)N1C[C@]2(C[C@H]1C(=O)CO)C(=O)Nc1ccccc12)N(C)C(=O)c1cc2c(F)cc(F)cc2[nH]1 [Example 157]	100 to 1000 nM
CC(C)C[C@@H](C(=O)N1C[C@]2(C[C@H]1C(=O)CO)C(=O)Nc1ccccc12)N(C)C(=O)c1cc2c(F)cc(F)c(F)c2[nH]1 [Example 158]	100 to 1000 nM
CC(C)C[C@@H](C(=O)N1C[C@]2(C[C@H]1C(=O)CCl)C(=O)Nc1ccccc12)N(C)C(=O)c1cc2c(F)cc(F)c(F)c2[nH]1 [Example 159]	> 1000 nM
CC(C)C[C@@H](C(=O)N1C[C@]2(C[C@H]1C#N)C(=O)Nc1ccccc12)N(C(=O)OCc1ccccc1)C(C)C [Example 160]	> 1000 nM
CC(C)N(C(=O)OC(C)(C)C)[C@@H](Cc1ccccc1)C(=O)N1C[C@]2(C[C@H]1C#N)C(=O)Nc1ccccc12 [Example 161]	> 1000 nM
CC(C)C[C@@H](C(=O)N1C[C@]2(C[C@H]1C#N)C(=O)Nc1ccccc12)N(C)C(=O)c1cccc(Cl)c1 [Example 167]	< 100 nM
CC(C)C[C@@H](C(=O)N1C[C@]2(C[C@H]1C#N)C(=O)Nc1ccccc12)N(C)C(=O)c1ccc(Cl)cc1Cl [Example 168]	< 100 nM
CC(C)C[C@@H](C(=O)N1C[C@]2(C[C@H]1C#N)C(=O)Nc1ccccc12)N(C)C(=O)c1c(Cl)ccc(Cl)c1F [Example 169]	< 100 nM
COc1ccc(Cl)cc1C(=O)N(C)[C@@H](CC(C)C)C(=O)N1C[C@]2(C[C@H]1C#N)C(=O)Nc1ccccc12 [Example 170]	< 100 nM
CC(C)C[C@@H](C(=O)N1C[C@]2(C[C@H]1C#N)C(=O)Nc1ccccc12)N(C)C(=O)c1cc(Cl)c(F)cc1F [Example 171]	< 100 nM
CC(C)C[C@@H](C(=O)N1C[C@]2(C[C@H]1C#N)C(=O)Nc1ccccc12)N(C)C(=O)c1cc(Cl)cc(Cl)c1 [Example 172]	< 100 nM
CC(C)C[C@@H](C(=O)N1C[C@]2(C[C@H]1C#N)C(=O)Nc1ccccc12)N(C)C(=O)c1cc(F)cc(Cl)c1 [Example 173]	< 100 nM
CC(C)C[C@@H](C(=O)N1C[C@]2(C[C@H]1C#N)C(=O)Nc1ccccc12)N(C)C(=O)c1ccc(Cl)c(C(F)(F)F)c1 [Example 174]	< 100 nM
CC(C)C[C@@H](C(=O)N1C[C@]2(C[C@H]1C#N)C(=O)Nc1ccccc12)N(C)C(=O)c1ccc(Cl)c(F)c1F [Example 175]	< 100 nM
CC(C)C[C@@H](C(=O)N1C[C@]2(C[C@H]1C#N)C(=O)Nc1ccccc12)N(C)C(=O)c1ccc(F)c(C(F)(F)F)c1 [Example 177]	< 100 nM
CC(C)C[C@@H](C(=O)N1C[C@]2(C[C@H]1C#N)C(=O)Nc1ccccc12)N(C)C(=O)c1ccc(F)c(F)c1 [Example 178]	< 100 nM
CC(C)C[C@@H](C(=O)N1C[C@]2(C[C@H]1C#N)C(=O)Nc1ccccc12)N(C)C(=O)c1ccc(OC(F)(F)F)c(F)c1 [Example 179]	< 100 nM

Source: EP4001279A1, “NOVEL SPIROPYRROLIDINE DERIVED ANTIVIRAL AGENTS” (Enanta Pharmaceuticals, Inc., priority 2020, dated 2022)
